The results in this text go back to paper PMC10779433, “Bidirectional Allosteric Coupling between PIP2 Binding and the Pore of the Oncochannel TRPV6” (International Journal of Molecular Sciences, 2024).

SMILES strings stand for the structures. Where two headings read alike, the source gives them in different places. Residues, ends and D or L forms follow the SMILES beside them. *: point of attachment. Palmitoyl = CCCCCCCCCCCCCCCC(=O)*

Data set [1] concerns the target T1, TRPV6 WT (Homo sapiens, UniProt Q9H1D0).
T1 construct: expressed in transfected cells; host or cells: HEK293 cells, transient transfection
T1 sequence (Q9H1D0 41-765 limits assumed): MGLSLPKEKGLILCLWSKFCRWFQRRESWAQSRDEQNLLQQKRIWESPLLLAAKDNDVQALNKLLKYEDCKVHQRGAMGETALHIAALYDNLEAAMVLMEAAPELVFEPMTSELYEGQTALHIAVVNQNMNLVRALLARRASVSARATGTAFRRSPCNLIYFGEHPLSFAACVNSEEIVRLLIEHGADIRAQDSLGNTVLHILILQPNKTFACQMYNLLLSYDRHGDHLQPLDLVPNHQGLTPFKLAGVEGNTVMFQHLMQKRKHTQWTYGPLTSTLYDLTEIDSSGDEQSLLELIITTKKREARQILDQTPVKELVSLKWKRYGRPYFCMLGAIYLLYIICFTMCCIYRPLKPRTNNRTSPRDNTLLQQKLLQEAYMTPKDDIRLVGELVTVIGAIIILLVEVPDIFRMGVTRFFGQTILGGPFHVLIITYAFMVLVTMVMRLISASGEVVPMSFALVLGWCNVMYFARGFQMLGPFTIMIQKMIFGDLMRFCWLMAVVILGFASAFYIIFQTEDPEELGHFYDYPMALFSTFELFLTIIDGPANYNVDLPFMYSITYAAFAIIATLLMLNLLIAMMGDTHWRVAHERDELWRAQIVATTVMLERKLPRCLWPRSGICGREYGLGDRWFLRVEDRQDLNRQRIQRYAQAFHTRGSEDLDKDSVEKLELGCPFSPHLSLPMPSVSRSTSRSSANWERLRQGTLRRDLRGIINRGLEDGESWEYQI
Nature of the data set: Whole-cell patch clamp, TRPV6 WT. The format is cell-based. Particulars: for re-activation after washout with DMSO: 0.1 μM cis-22a or 10 μM pal-PIP2 peptide, then diluted DMSO, n=4 each, Figure S6C,D. The source says:
N-terminally TagRFP-labeled human TRPV6 (725 aa) was kindly provided by R. Bhardwaj and M. Hediger (University of Bern, Bern, Switzerland). This variant is translated from the first ATG codon and thus deviates from the non-ATG-initiated protein which is expressed in vivo (accession number NM_018646.6) by lacking 40 amino acids of the very N-terminus. For N-terminal labeling with EYFP, TRPV6 was cloned into pEYFP-C1 (Clontech) via EcoRI and SacII restriction sites. Mutations (F468A, R470A, F472A, K484A/Q, G488R, R492A/Q, I575A, G579A, D580A/K, H582A, W583A/F, H587A, R589A, W593A, R632A/Q, R470A, W583F) were introduced using the QuickChange XL site-directed mutagenesis kit (Stratagene, San Diego, CA, USA) and Pfu DNA Polymerase (Promega, Madison, WI, USA). pTagRFP-hTRPV6 I575A was kindly provided by the lab of M. Hediger (University of Bern, Bern, Switzerland). Forward and reverse primers for site-directed mutagenesis were synthesized by Eurofins genomics GmbH (Wien, Vienna, Austria). Intactness of the constructs in terms of sequence was confirmed by sequencing (Microsynth Austria GmbH, Wien, Vienna, Austria; Eurofins genomics GmbH, Wien, Vienna, Austria). In the present experiments, Tag-RFP-labeled constructs were implemented for NFAT screens, patch clamp measurements, and Fura-2-based Ca^2+ imaging, while for R.Geco1.2 measurements, TRPV6 WT and mutants were used which carried an EYFP label at the N-terminus (pEYFP-C1 vector) to avoid spectral overlap. R.Geco1.2 was purchased from Addgene (No. 45494), and mCherry-CRY2-5ptase OCRL was established in the lab of P. De Camilli and was derived from Addgene (No. 66836), as was CIBN-CAAX (No. 79574). Plasmids encoding for mCerulean3-CRY2-5′ ptase OCRL, YFP-CIBN-CAAX, and the mCherry-tagged PH domain were provided by K. Groschner (Medical University of Graz, Graz, Austria). […] CFP-NFAT (NFATc1, equivalent to NFAT2) was kindly provided by R. Kehlenbach (Scripps Research Institute, La Jolla, CA, USA).
Cultivation of human embryonic kidney (HEK) 293 cells occurred in DMEM supplemented with 10% fetal calf serum, penicillin (100 U/mL), and streptomycin (100 µg/mL) at 37 °C under humidified atmosphere containing 5% CO2. Transient transfection was performed 20–24 h prior to experiments using the TransFectin lipid reagent (Bio-Rad, Hercules, CA, USA), in accordance with the instructions of the supplier. For Ca^2+ imaging using R.Geco1.2, 2 μg of the indicator-encoding plasmid were additionally transfected, while 1 μg plasmid DNA was routinely used per construct in all other cases. For patch clamp experiments, cells were reseeded on poly-L-lysine-coated glass slides at least 4 h prior to experiments. To exclude mycoplasma contaminations, culture supernatants were regularly tested by means of the VenorGem Advanced Mycoplasma Detection kit (VenorGEM, Berlin, Germany).
Electrophysiological experiments were performed at 20 °C to 24 °C in whole-cell recording configurations of the patch clamp technique. A Ag/AgCl electrode was used as a reference electrode. The implemented voltage ramp protocol included a holding potential of +50 mV, wherefrom voltage was ramped from −90 mV to +90 mV within 200 ms with an interval of 5 s between individual ramps. For the time courses, the inward current density at −74 mV was considered. The internal pipette solution contained 145 mM cesium methane sulfonate, 8 mM NaCl, 3.5 mM MgCl2, 10 mM HEPES, and 20 mM EGTA (pH 7.2). For electrophysiological measurements, the basic extracellular solution was composed of 145 mM NaCl, 5 mM CsCl, 1 mM MgCl2, 10 mM HEPES, 10 mM glucose, and 10 mM CaCl2 (pH 7.4). Leak correction of currents was performed by subtracting the residual current after 1 mM La^3+ application at the end of the experiment. The liquid junction potential was determined as 12 mV; the voltages were not adjusted. Clampfit 11.1.0.23 and OriginPro 2020b software were used for data analysis. All experiments were conducted on a minimum of two different days.
For orientation: The patch-clamp technique gives a direct electrical read-out from membranes.

For data set [2], the system named is TRPV6 R492Q. Nature of the data set: Whole-cell patch clamp, TRPV6 R492Q. The format is cell-based, human. Particulars: HEK293 cells, p < 0.05. The text has this: N-terminally TagRFP-labeled human TRPV6 (725 aa) was kindly provided by R. Bhardwaj and M. Hediger (University of Bern, Bern, Switzerland). This variant is translated from the first ATG codon and thus deviates from the non-ATG-initiated protein which is expressed in vivo (accession number NM_018646.6) by lacking 40 amino acids of the very N-terminus. For N-terminal labeling with EYFP, TRPV6 was cloned into pEYFP-C1 (Clontech) via EcoRI and SacII restriction sites. Mutations (F468A, R470A, F472A, K484A/Q, G488R, R492A/Q, I575A, G579A, D580A/K, H582A, W583A/F, H587A, R589A, W593A, R632A/Q, R470A, W583F) were introduced using the QuickChange XL site-directed mutagenesis kit (Stratagene, San Diego, CA, USA) and Pfu DNA Polymerase (Promega, Madison, WI, USA). pTagRFP-hTRPV6 I575A was kindly provided by the lab of M. Hediger (University of Bern, Bern, Switzerland). Forward and reverse primers for site-directed mutagenesis were synthesized by Eurofins genomics GmbH (Wien, Vienna, Austria). Intactness of the constructs in terms of sequence was confirmed by sequencing (Microsynth Austria GmbH, Wien, Vienna, Austria; Eurofins genomics GmbH, Wien, Vienna, Austria). In the present experiments, Tag-RFP-labeled constructs were implemented for NFAT screens, patch clamp measurements, and Fura-2-based Ca^2+ imaging, while for R.Geco1.2 measurements, TRPV6 WT and mutants were used which carried an EYFP label at the N-terminus (pEYFP-C1 vector) to avoid spectral overlap. R.Geco1.2 was purchased from Addgene (No. 45494), and mCherry-CRY2-5ptase OCRL was established in the lab of P. De Camilli and was derived from Addgene (No. 66836), as was CIBN-CAAX (No. 79574). Plasmids encoding for mCerulean3-CRY2-5′ ptase OCRL, YFP-CIBN-CAAX, and the mCherry-tagged PH domain were provided by K. Groschner (Medical University of Graz, Graz, Austria). […]
(§1) Electrophysiological experiments were performed at 20 °C to 24 °C in whole-cell recording configurations of the patch clamp technique. […] The liquid junction potential was determined as 12 mV; the voltages were not adjusted. […]

In data set [3] the test system is TRPV6 D580K. Nature of the data set: Whole-cell patch clamp, TRPV6 D580K. Particulars: HEK293 cells, 10 μM pal-PIP2 peptide, Figure 5C (substitution reduces the inhibition). Type of data set: cell-based, human.
Text: N-terminally TagRFP-labeled human TRPV6 (725 aa) was kindly provided by R. Bhardwaj and M. Hediger (University of Bern, Bern, Switzerland). This variant is translated from the first ATG codon and thus deviates from the non-ATG-initiated protein which is expressed in vivo (accession number NM_018646.6) by lacking 40 amino acids of the very N-terminus. For N-terminal labeling with EYFP, TRPV6 was cloned into pEYFP-C1 (Clontech) via EcoRI and SacII restriction sites. Mutations (F468A, R470A, F472A, K484A/Q, G488R, R492A/Q, I575A, G579A, D580A/K, H582A, W583A/F, H587A, R589A, W593A, R632A/Q, R470A, W583F) were introduced using the QuickChange XL site-directed mutagenesis kit (Stratagene, San Diego, CA, USA) and Pfu DNA Polymerase (Promega, Madison, WI, USA). pTagRFP-hTRPV6 I575A was kindly provided by the lab of M. Hediger (University of Bern, Bern, Switzerland). Forward and reverse primers for site-directed mutagenesis were synthesized by Eurofins genomics GmbH (Wien, Vienna, Austria). Intactness of the constructs in terms of sequence was confirmed by sequencing (Microsynth Austria GmbH, Wien, Vienna, Austria; Eurofins genomics GmbH, Wien, Vienna, Austria). […]
as §1

Data set [4] concerns the target T1, TRPV6 WT. Nature of the data set: Fura-2 Ca2+ imaging, TRPV6 WT. Type of data set: cell-based. Particulars: 20 μM pal-PIP2 peptide; for inhibition at 20 µM: HEK293, read-out: mean percentage of inhibition (Fura-2 signal), HEK293 cells.

`Cc1cccc(C2CCC(N3CCN(c4cccnc4)CC3)CC2)c1.O=C(O)C(F)(F)F` (stereo not drawn) [cis-22a]: the “re-activation after washout with DMSO” value in data set [1] (HEK293 cells) is “no re-activation occurred”. Also, the “inhibition of current (in words)” value in data set [1] (HEK293 cells, 10 µM cis-22a, after 0.1 µM, Figure 2D) is on record as “almost complete block”. The inhibition of current in data set [1] (HEK293 cells, 10 μM cis-22a, 10 mM Ca2+, relative to La3+ block, Figure 4C) is recorded as ~ 98%. Also, the “current inhibition vs TRPV6 WT” value is “significantly reduced” in data set [2] (0.1 μM cis-22a) and “significantly reduced inhibition” in data set [2] (10 μM cis-22a, after 0.1 μM).
Regarding `CCCCCCCCCCCCCCCC(=O)N[C@@H](Cc1c[nH]cn1)C(=O)N[C@@H](CCCNC(=N)N)C(=O)N[C@@H](CCC(N)=O)C(=O)N[C@@H](CCCCN)C(=O)N[C@@H](Cc1c[nH]cn1)C(=O)N[C@@H](Cc1ccccc1)C(=O)N[C@@H](CCC(=O)O)C(=O)N[C@@H](CCCCN)C(=O)N[C@@H](CCCNC(=N)N)C(=O)N[C@@H](CCCNC(=N)N)C(N)=O` [pal-PIP2 peptide] (Palmitoyl-HRQKHFEKRR-NH2), half-maximal inhibition in data set [1] (IC50) required 4.47 µM. Also, the inhibition (in general, the share of the control response that was lost under treatment) at 20 µM in data set [1] (HEK293, read-out: apparent inhibition of current) was approximately 63%; in data set [4] (applied after 0.5 μM cis-22a, Figure 6D, not significantly different from reverse order), 9.18%; in data set [4] (applied first (before cis-22a), Figure 6C), 10.8%. Also, the inhibition at 10 µM in data set [1] (HEK293, read-out: inhibition of current) is approximately 56%; in data set [1] (HEK293, read-out: mean percentage of inhibition (current)), 51.6%; in data set [1] (HEK293, read-out: mean percentage of inhibition (residual current)) it was 54%. The “re-activation after washout with DMSO” value in data set [1] (HEK293 cells) is given as “no re-activation occurred”. The “Ca2+ selectivity” value in data set [1] (HEK293 cells, 10 μM pal-PIP2 peptide, current-voltage relationship, Figure S1D) is “remained unchanged”. Moreover, in data set [1] (HEK293 cells, Figure 1C,D, S1B–D), the “reduction of current density (in words)” value is reported as “reduced in a dose-dependent manner”. The “Hill coefficient of dose–response” value in data set [1] (HEK293 cells, Hill fit, 0.1 μM to 30 μM) is listed as 1.95. Further, in data set [1] (HEK293 cells, above 30 μM up to 100 μM, supposedly due to increased DMSO concentration), the “effect at further increased concentration” value is “rapid membrane rupture or leaky measurements”. For the same molecule, the “maximum inhibition of TRPV6 currents (plateau)” value in data set [1] (HEK293 cells, plateau from 20 μM on) is given as “about 60%”. The “inhibitory effect of pal-PIP2 peptide vs WT” value in data set [3] is given as “interfered with the inhibitory effect of the pal-PIP2 peptide”. Moreover, the “decrease in cytosolic Ca2+ level” value in data set [4] (HEK293 cells, 2 mM Ca2+, Figure 1B, significantly stronger than control peptide (p < 0.05)) was “approximately 11%”. Besides, in data set [4] (HEK293 cells, 2 mM Ca2+, Figure 2A, comparison with G488R), the “reduction of intracellular Ca2+ level” value was “about 13%”. Moreover, the “sensitivity to peptide-based PIP2 sequestration vs WT” value in data set [2] (10 μM pal-PIP2 peptide, Figure 4D) is reported as “significantly reduced sensitivity”.
